Assay results published in patent US20090004194A1, “TLR AGONIST (FLAGELLIN)/CD40 AGONIST/ANTIGEN PROTEIN AND DNA CONJUGATES AND USE THEREOF FOR INDUCING SYNERGISTIC ENHANCEMENT IN IMMUNITY” (Regents of the University of Colorado, priority 2006, published 2009).
Entries after “also recorded” stand apart in the source; their conditions may differ.

Columns and labels:
spleen cells = assay: Type 1 IFN (IFNalphabeta) induction in spleen cells in vitro; assay type: cell-based
Description: Two forms of the recombinant protein are made; the light chain, heavy chain and HIV Gag with and without flagellin. The TLR7/8 agonist is conjugated to each other resulting in the production of proteins which stimulate CD40/TLR7/8. A proprietary TLR7/8 agonist, called 3M012 (3M Pharmaceuticals Inc, St. Paul Minn.) contains a photoconjugatable linker, which when placed under UV light, conjugates rapidly to terminal amino groups (lysines, arginines, N terminus) in the protein of interest. Conjugation to the TLR7/8 agonist is performed as described previously (Wille-Reece et al., J. Immunol. 174:7676 (2005)). Briefly, recombinant protein is placed in deep well polypropylene 96 well plates (Costar) with 50-100 microliters of 10 mg/ml 3M012 and exposed to longwave UV light for 15 minutes. Following UV exposure, the recombinant protein-TLR7/8 conjugate is washed through a 30 kd cutoff centricon concentrator to remove any free 3M012 and […] molecular weight drug conjugates. The recombinant protein-TLR7/8 conjugates are washed in PBS pH 7.5-8 and analyzed as described above for anti-CD40 and TLR5 activity (for recombinant protein containing flagellin). The amount of 3M012 conjugated to the recombinant protein is determined in vitro by type 1 IFN (IFNalphabeta) induction in spleen cells as previously described (Wille-Reece et al. (Id)).

[1] = system: antigen specific CD8+ T cells; assay: Immunization of mice with ovalbumin plus TLR and CD40 agonists; antigen-specific CD8+ T cells by tetramer staining; assay type: in vivo

## flagellin
Spleen cells
  IFN alphabeta induction: does not induce IFN alphabeta
[1]; whole ovalbumin + anti-CD40 + TLR agonist
  synergy with anti-CD40 for inducing CD8+ T cell expansion: able to synergize with anti-CD40; also recorded: effectively synergizes with anti-CD40

## poly IC
[1]; mouse, in vivo
  synergy with anti-CD40 for inducing CD8+ T cell expansion: able to synergize with anti-CD40
